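Results reflect a 48-hour exposure of cells in 96-well plates to compound at five concentrations. TGI: concentration producing complete growth inhibition.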
How the values were obtained:
Assay in all cases: NCI tumour cell line growth inhibition, 48 h
[1] = tested on: 786-0 renal
[2] = tested on: A498 renal
[3] = tested on: A549 NSCLC
[4] = tested on: ACHN renal
[5] = tested on: BT-549 breast
[6] = tested on: CAKI-1 renal
[7] = tested on: CCRF-CEM leukemia
[8] = tested on: COLO 205 colon
[9] = tested on: DU-145 prostate
[10] = tested on: EKVX NSCLC
[11] = tested on: HCC-2998 colon
[12] = tested on: HCT-116 colon
[13] = tested on: HCT-15 colon
[14] = tested on: HL-60(TB) leukemia
[15] = tested on: HOP-62 NSCLC
[16] = tested on: HOP-92 NSCLC
[17] = tested on: HS 578T breast
[18] = tested on: HT29 colon
[19] = tested on: IGROV1 ovarian
[20] = tested on: K-562 leukemia
[21] = tested on: KM12 colon
[22] = tested on: LOX IMVI melanoma
[23] = tested on: M14 melanoma
[24] = tested on: MALME-3M melanoma
[25] = tested on: MCF7 breast
[26] = tested on: MDA-MB-231 breast
[27] = tested on: MDA-MB-435
[28] = tested on: MDA-N
[29] = tested on: MOLT-4 leukemia
[30] = tested on: NCI-H23 lung
[31] = tested on: NCI-H460 lung
[32] = tested on: NCI-H522 lung
[33] = tested on: NCI/ADR-RES ovarian
[34] = tested on: OVCAR-3 ovarian
[35] = tested on: OVCAR-4 ovarian
[36] = tested on: OVCAR-5 ovarian
[37] = tested on: OVCAR-8 ovarian
[38] = tested on: PC-3 prostate
[39] = tested on: RPMI-8226 leukemia
[40] = tested on: RXF 393 renal
[41] = tested on: SF-268 CNS
[42] = tested on: SF-295 CNS
[43] = tested on: SF-539 CNS
[44] = tested on: SK-MEL-5 melanoma
[45] = tested on: SK-OV-3 ovarian
[46] = tested on: SN12C renal
[47] = tested on: SNB-19 CNS
[48] = tested on: SW-620 colon
[49] = tested on: T-47D breast
[50] = tested on: TK-10 renal
[51] = tested on: U251 CNS
[52] = tested on: UACC-257 melanoma
[53] = tested on: UACC-62 melanoma
[54] = tested on: UO-31 renal
[55] = tested on: NCI-H226 lung
[56] = tested on: SK-MEL-2 melanoma
[57] = tested on: SK-MEL-28 melanoma
[58] = tested on: SNB-75 CNS
[59] = tested on: SR leukemia

Structure (SMILES): CSc1s[s+]c(SC)c1-c1ccccc1
- TGI [1]: 28.1 µM
- TGI [2]: 47.3 µM
- TGI [3]: > 100 µM
- TGI [4]: 32.8 µM
- TGI [5]: 28.2 µM
- TGI [6]: 36.4 µM
- TGI [7]: 81.4 µM
- TGI [8]: 32.4 µM
- TGI [9]: > 100 µM
- TGI [10]: 33 µM
- TGI [11]: 21.5 µM
- TGI [12]: 29.5 µM
- TGI [13]: 41.5 µM
- TGI [14]: 60.6 µM
- TGI [15]: 29.4 µM
- TGI [16]: 33.6 µM
- TGI [17]: 86.9 µM
- TGI [18]: 32.3 µM
- TGI [19]: > 100 µM
- TGI [20]: 50.3 µM
- TGI [21]: 33.8 µM
- TGI [22]: 52 µM
- TGI [23]: 30.8 µM
- TGI [24]: 24.6 µM
- TGI [25]: 33.7 µM
- TGI [26]: 31.2 µM
- TGI [27]: 36 µM
- TGI [28]: 32.7 µM
- TGI [29]: > 100 µM
- TGI [30]: 34.7 µM
- TGI [31]: > 100 µM
- TGI [32]: 27.9 µM
- TGI [33]: 42.1 µM
- TGI [34]: 37.6 µM
- TGI [35]: 17.9 µM
- TGI [36]: 31.2 µM
- TGI [37]: 40.3 µM
- TGI [38]: 54.1 µM
- TGI [39]: 56.7 µM
- TGI [40]: 30.4 µM
- TGI [41]: 43 µM
- TGI [42]: 36.9 µM
- TGI [43]: 32.4 µM
- TGI [44]: 29.3 µM
- TGI [45]: 38 µM
- TGI [46]: 35 µM
- TGI [47]: 35.1 µM
- TGI [48]: 34.9 µM
- TGI [49]: > 100 µM
- TGI [50]: 32.4 µM
- TGI [51]: 41.1 µM
- TGI [52]: 27.8 µM
- TGI [53]: 28.3 µM
- TGI [54]: 46.3 µM

Structure (SMILES): CN(C)CCNC(=O)c1cccc2c(NC(CS)C(=O)O)c3ccccc3nc12 (stereo not drawn)
- TGI [1]: > 100 µM
- TGI [3]: 66.9 µM
- TGI [4]: 59.8 µM
- TGI [5]: 45.6 µM
- TGI [6]: 57.1 µM
- TGI [7]: > 100 µM
- TGI [8]: 16 µM
- TGI [9]: > 100 µM
- TGI [10]: 39.3 µM
- TGI [11]: > 100 µM
- TGI [12]: > 100 µM
- TGI [13]: 26.3 µM
- TGI [14]: 9.72 µM
- TGI [15]: 41.6 µM
- TGI [16]: > 100 µM
- TGI [18]: 52.3 µM
- TGI [19]: 28 µM
- TGI [20]: > 100 µM
- TGI [21]: > 100 µM
- TGI [22]: 21.1 µM
- TGI [23]: 19.5 µM
- TGI [24]: 11.3 µM
- TGI [25]: 29.5 µM
- TGI [26]: 23.6 µM
- TGI [27]: 21 µM
- TGI [28]: 20 µM
- TGI [29]: 44.3 µM
- TGI [55]: 69.2 µM
- TGI [30]: 30.4 µM
- TGI [31]: 87.6 µM
- TGI [32]: 20.2 µM
- TGI [33]: > 100 µM
- TGI [34]: > 100 µM
- TGI [35]: > 100 µM
- TGI [36]: 60.4 µM
- TGI [37]: > 100 µM
- TGI [38]: 28.2 µM
- TGI [41]: 39.6 µM
- TGI [42]: 28.9 µM
- TGI [43]: 18.1 µM
- TGI [56]: 27.7 µM
- TGI [57]: 35.7 µM
- TGI [44]: 20 µM
- TGI [45]: 80.7 µM
- TGI [46]: 24 µM
- TGI [47]: 50.9 µM
- TGI [58]: 38.5 µM
- TGI [59]: > 100 µM
- TGI [48]: > 100 µM
- TGI [50]: > 100 µM
- TGI [51]: > 100 µM
- TGI [52]: > 100 µM
- TGI [53]: > 100 µM
- TGI [54]: 11.8 µM

Reference: PubChem BioAssay (NCI)
